One may read the pIC50 as the IC50 on a negative log10 scale, so that one unit is a factor of ten. Higher therefore signals a low IC50.

Results on nine molecules are retold here after patent publication US7098211B2, “Compounds having simultaneous ability to block L-type calcium channels and to inhibit phosphodiesterase type 3 activity” (Artesian Therapeutics, Inc., priority 2002, dated 2006).

pIC50: −log10 of the molar value. Where “and” joins values, the source holds several entries; their conditions need not be identical. Equal values may be shown once.

The test system of data set [1] is paced dog model of congestive heart failure. The data set is described as follows: Paced dog model of congestive heart failure. Format: in vivo. Particulars: for ventricular tachycardia: all tested dosages. As to the method: Compound 8 was evaluated in a paced dog model of congestive heart failure. Pacing-induced heart failure in the dog produces alterations in heart physiology and molecular signaling similar to what is seen in the failing human heart, making this an appropriate model to test compounds that can potentially improve calcium homeostasis and heart failure physiology. Heart failure was induced by increasing the heart rate to 220–240 beats per minute (bpm) for a six week period. The degree of heart failure was documented by both pressure measurements and echocardiogram (changes in contractility, ejection fraction, ventricular relaxation, fractional area shortening, isovolumic relaxation time). Compound 8 or the milrinone were administered following the induction of heart failure.

Data set [2] deals with T1, Human platelet cyclic AMP phosphodiesterase (PDE-3) (Homo sapiens, UniProt Q14432).
T1 construct: Human platelet cyclic AMP phosphodiesterase was prepared; from tissue; host or cells: human platelets
T1 sequence (Q14432 whole entry): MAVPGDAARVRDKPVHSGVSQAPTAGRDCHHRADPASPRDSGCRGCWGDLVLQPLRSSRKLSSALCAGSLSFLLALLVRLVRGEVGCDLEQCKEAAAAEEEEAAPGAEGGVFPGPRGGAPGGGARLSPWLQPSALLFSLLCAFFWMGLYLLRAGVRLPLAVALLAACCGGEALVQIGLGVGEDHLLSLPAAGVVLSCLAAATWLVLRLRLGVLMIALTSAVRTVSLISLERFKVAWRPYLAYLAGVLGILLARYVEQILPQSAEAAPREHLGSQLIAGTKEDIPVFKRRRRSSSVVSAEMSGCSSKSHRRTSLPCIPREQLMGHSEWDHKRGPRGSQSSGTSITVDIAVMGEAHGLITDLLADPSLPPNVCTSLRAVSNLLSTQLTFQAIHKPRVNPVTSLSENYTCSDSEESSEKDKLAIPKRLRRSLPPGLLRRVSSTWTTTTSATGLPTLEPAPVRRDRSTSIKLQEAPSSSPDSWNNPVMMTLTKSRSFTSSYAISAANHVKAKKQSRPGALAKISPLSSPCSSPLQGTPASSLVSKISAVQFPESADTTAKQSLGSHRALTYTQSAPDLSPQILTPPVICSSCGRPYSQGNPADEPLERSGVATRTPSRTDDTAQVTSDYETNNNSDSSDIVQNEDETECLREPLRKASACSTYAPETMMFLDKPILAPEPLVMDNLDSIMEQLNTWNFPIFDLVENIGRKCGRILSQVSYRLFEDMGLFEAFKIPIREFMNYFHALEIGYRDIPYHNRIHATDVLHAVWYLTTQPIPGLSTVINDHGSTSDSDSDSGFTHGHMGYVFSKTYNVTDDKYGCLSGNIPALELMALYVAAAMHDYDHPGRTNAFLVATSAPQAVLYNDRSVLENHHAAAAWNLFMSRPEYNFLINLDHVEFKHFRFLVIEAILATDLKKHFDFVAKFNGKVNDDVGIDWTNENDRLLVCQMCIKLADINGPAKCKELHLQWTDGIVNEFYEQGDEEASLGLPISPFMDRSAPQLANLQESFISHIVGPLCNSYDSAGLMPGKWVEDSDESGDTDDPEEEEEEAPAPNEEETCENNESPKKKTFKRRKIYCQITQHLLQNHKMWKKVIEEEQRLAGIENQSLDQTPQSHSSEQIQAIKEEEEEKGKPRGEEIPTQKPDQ
Kind of data set: cAMP PDE-3 inhibitory activity assay. Format: biochemical. The conditions noted are these: 10 minutes at 30° C., n=3 per concentration. As to the method: Human platelet cyclic AMP phosphodiesterase was prepared according to the method of Alvarez et al. (Mol. Pharmacol. 1986, 29, 554). The PDE incubation medium contained 10 mM Tris-HCl buffer, pH 7.7, 10 mM MgSO4, and 1 μM […] (0.2 μCi) in a total volume of 1.0 mL. Test compounds were dissolved in dimethyl sulfoxide (DMSO) immediately prior to addition to the incubation medium, and the resulting mixture was allowed to stand for 10 minutes prior to the addition of enzyme. Following the addition of PDE, the contents were mixed and incubated for 10 minutes at 30° C. Three assays each were performed for each of five test compound concentrations, the mean of the determinations (n=3) at each concentration was plotted, and IC50 values were determined graphically.

The subject of data set [3] is guinea pig papillary muscle. Kind of data set: Contraction-relaxation in guinea pig papillary muscle. Format: cell-based. Particulars: FIG. 1. As to the method: Male guinea pigs (400–500 g) were killed by cervical dislocation and the hearts were quickly removed, immersed in ice-cold, and oxygenated in Kreb's solution containing 113.1 mM NaCl, 4.6 mM KCl, 2.45 mM CaCl2, 1.2 mM MgCl2, […], and 10.0 mM glucose; pH 7.4 with 95% O2–5% CO2. The ventricles were opened and papillary muscles were removed with chordae tandineae and a base of surrounding tissue intact. The tendinous ends of the muscles were ligated with silk thread, and the muscles were mounted in vertical, double-jacketed organ baths containing 10 mL of oxygenated Kreb's solution kept at 37° C. […]
Following a 45-minute equilibration period under a 1 gram tension, control contractions were elicited by stimulating the muscle using stainless steel field electrodes at a frequency of 1.0 Hz, 2.0 ms duration. […] Control contraction-relaxation cycles were recorded for 30 seconds continuously. […] A series of washout contractions was recorded following a change of solution. When the amplitude of contraction returned to that measured in control conditions, a single concentration of positive control was then tested on the tissue in the same manner as Compound 5 and milrinone.
Contraction amplitude as well as the time courses of contraction and relaxation were quantified. […]

As to `COC(=O)C1=C(C)NC(COCCNC(=O)COc2ccc(C3=NNC(=O)CC3)cc2Cl)=C(C(=O)OC)C1c1ccccc1Cl` (stereo not drawn) [Compound 8, methyl 6-[(2-{2-[2-chloro-4-(6-oxo(1,4,5-trihydropyridazin-3-yl))phenoxy]acetylamino}ethoxy)methyl]-4-(2-chlorophenyl)-5-(methoxycarbonyl)-2-methyl-1,4-dihydropyridine-3-carboxylate], in data set [1] (% of that produced by milrinone, FIG. 2), the “contractility (dp/dt max) and ejection fraction, maximal increase relative to that produced by milrinone” value was 53–61%. In data set [1] (% of that produced by milrinone, FIG. 3), the “ventricular relaxation (dp/dt min, Tau and isovolumic relaxation time), maximal increase relative to that produced by milrinone” value is listed as 63–88%. In data set [1] (dogs in heart failure, FIG. 2), the “contractility (dp/dt max) and ejection fraction” value is given as “dose-dependent response”. In data set [1] (dogs in heart failure, FIG. 3), the “ventricular relaxation (dp/dt min, Tau and isovolumic relaxation time)” value is listed as “increased ventricular relaxation in a dose-dependent manner”. Also, the ventricular tachycardia result in data set [1] (dogs in heart failure) is “no ventricular tachycardia”. For the same molecule, the “in vivo inhibition of PDE-3 and calcium channel antagonism” value in data set [1] (systemic administration, dogs in heart failure) was “demonstrated in vivo inhibition of PDE-3 and calcium channel antagonism”. For the same molecule, the QT prolongation entry in data set [1] (under acute conditions) is “no apparent QT prolongation”. Also, the pIC50 in data set [2] was 7.10.
With `COC(=O)C1=C(C)NC(COCCNC(=O)CCCOc2ccc3[nH]c(=O)ccc3c2)=C(C(=O)OC)C1c1ccccc1[N+](=O)[O-]` (stereo not drawn) [Compound 6, methyl 5-(methoxycarbonyl)-2-methyl-4-(2-nitrophenyl)-6-({2-[4-(2-oxo(6-hydroquinolyloxy))butanoylamino]ethoxy}methyl)-1,4-dihydropyridine-3-carboxylate], the pIC50 in data set [2] is 6.57 and 6.96.
With `COC(=O)C1=C(C)NC(COCCNC(=O)COc2ccc3[nH]c(=O)ccc3c2)=C(C(=O)OC)C1c1ccccc1Cl` (stereo not drawn) [Compound 12, methyl 4-(2-chlorophenyl)-5-(methoxycarbonyl)-2-methyl-6-({2-[2-(2-oxo(6-hydroquinolyloxy))acetylamino]ethoxy}methyl)-1,4-dihydropyridine-3-carboxylate], the pIC50 in data set [2] was 6.62.
In the case of `COC(=O)C1=C(C)NC(COCCNC(=O)CCCOc2ccc3[nH]c(=O)ccc3c2)=C(C(=O)OC)C1c1ccccc1Cl` (stereo not drawn) [Compound 10, methyl 4-(2-chlorophenyl)-5-(methoxycarbonyl)-2-methyl-6-({2-[4-(2-oxo(6-hydroquinolyloxy))butanoylamino]ethoxy}methyl)-1,4-dihydropyridine-3-carboxylate], the pIC50 in data set [2] was 6.57.
`CCOC(=O)C1=C(COCCNC(=O)COc2ccc(C3=NNC(=O)CC3)cc2Cl)NC(C)=C(C(=O)OC)C1c1ccccc1Cl` (stereo not drawn) [Compound 9, methyl 6-[(2-{2-[2-chloro-4-(6-oxo(1,4,5-trihydropyridazin-3-yl))phenoxy]acetylamino}ethoxy)methyl]-4-(2-chlorophenyl)-5-(ethoxycarbonyl)-2-methyl-1,4-dihydropyridine-3-carboxylate]: in data set [2], the negative-log IC50 (pIC50) was 7.32. This pIC50 lies 0.75 log units higher than the previous one.
Same read-out and setting: to `COC(=O)C1=C(C)NC(COCCCOc2ccc3[nH]c(=O)ccc3c2)=C(C(=O)OC)C1c1ccccc1Cl` (stereo not drawn) [Compound 7, methyl 4-(2-chlorophenyl)-5-(methoxycarbonyl)-2-methyl-6-{[3-(2-oxo(6-hydroquinolyloxy))propoxy]methyl}-1,4-dihydropyridine-3-carboxylate] belongs 6.47 and 6.38.
In the case of `CCOC(=O)C1=C(COCCNC(=O)CCCOc2ccc3[nH]c(=O)ccc3c2)NC(C)=C(C(=O)OC)C1c1ccccc1Cl` (stereo not drawn) [Compound 5, methyl 4-(2-chlorophenyl)-5-(ethoxycarbonyl)-2-methyl-6-({2-[4-(2-oxo(6-hydroquinolyloxy))butanoylamino]ethoxy}methyl)-1,4-dihydropyridine-3-carboxylate], the “inotropic effect (muscle contractility)” value in data set [3] (cumulative concentrations, stimulated at 1.0 Hz) is given as “positive inotropic effect (increase in muscle contractility) in a dose-dependent manner”. In addition, in data set [3] (guinea pig papillary muscle), the “maximum increase in contractility compared with milrinone” value is recorded as “less than the maximum increase produced by milrinone”. Besides, the pIC50 in data set [2] was 6.52.
As for `Cc1[nH]c(=O)c(C#N)cc1-c1ccncc1` [milrinone, reference compound], the ventricular tachycardia result in data set [1] (dogs in heart failure) was “demonstrated ventricular tachycardia”.
Molecule `CCOC(=O)C1=C(COCCNC(=O)COc2ccc3[nH]c(=O)ccc3c2)NC(C)=C(C(=O)OC)C1c1ccccc1Cl` (stereo not drawn) [Compound 11, methyl 4-(2-chlorophenyl)-5-(ethoxycarbonyl)-2-methyl-6-({2-[2-(2-oxo(6-hydroquinolyloxy))acetylamino]ethoxy}methyl)-1,4-dihydropyridine-3-carboxylate] gave a pIC50 in data set [2] of 7.00.
